Values after ≈ are worked out from the molar mass of the structure shown. “Also recorded” adds a separate entry of the source. Where two headings read alike, the source gives them in different places.
Assays:
[1] = Degree of solubility with respect to water at 20° C.; type: physicochemical
[2] = Spectrum analysis of detection chip before blood sample is deposited (transmittance of refractive index adjuster at 650 nm); type: physicochemical; details: absorption peak wavelength of WST-4
Experimental: The outline of an evaluation system used in spectrum analysis will be described below. Further, the outline of the evaluation system is illustrated in FIG. 6.
Light source: Halogen light source SPL-2H (KLV Co., Ltd.)
Conforming fiber: Core diameter=200μ or more
Spectrometer: Small fiber optical spectrometer USB2000+(Ocean Optics, Inc.)
The spectrum analysis was performed using the blood glucose value detection chips obtained in each of Embodiments and Comparative Embodiments. Incidentally, since the spacer thickness of the blood glucose value detection chip is 50 μm, the optical path length becomes 50 μm. […] Incidentally, the correction of the absorbance was performed by dividing the absorbance (actual measurement value) in each measurement wavelength by the value of the clearance (CL) (μm) actually measured in each chip and further multiplying the obtained value by […].
In the conditions of respective Embodiments and Comparative Embodiments, the value of absorbance at 650 nm (the absorption peak wavelength of WST-4) measured using the chip before the blood sample is deposited is not substantially different from the absorbance value measured by dissolving the refractive index adjuster in water and setting an optical path length of 50 μm. Therefore, from the transmittance curve before the blood sample is deposited, the transmittance of the refractive index adjuster in 650 nm that is the absorption peak wavelength of WST-4 was obtained. Incidentally, in Table 1, “⊙” represents that the transmittance at 650 nm is 60% or more and 100% or less, “◯” represents that the transmittance at 650 nm is 40% or more and less than 60%, and “X” represents that the transmittance at 650 nm is less than 40%.

red blood cell = experiment: Red blood cell reducing capability of refractive index adjuster (hematocrit value change); type: cell-based; details: 50 mM in blood sample, hematocrit value 40 before addition, 5 minutes after mixing
Experimental: 400 μL of blood plasma was recovered from 1.0 ml of blood sample (hematocrit value: 40). A refractive index adjuster was added to 400 μL of the recovered blood plasma to have a concentration of 125 mM. The blood plasma after addition of the refractive index adjuster combined with the original blood sample and mixed by inverting (the concentration of the refractive index adjuster in the blood sample becoming 50 mM). The sample after 5 minutes from mixing by inverting was filled in a hematocrit tube and was separated by centrifugation with a hematocrit centrifuge at 11×10^3 rpm for 5 minutes. A hematocrit value (Ht) after separation by centrifugation was read. […] Incidentally, “unmeasurable” in Table 1 means that the degree of solubility of the refractive index adjuster was low so that measurement could not be performed.

[3] = Precipitates by visual inspection before drying after coating film formation; type: physicochemical; details: coating liquid
Text: In the production step of the blood glucose value detection chip, existence of precipitates was confirmed by visual inspection before drying after coating film formation.

[4] = Refractive index increasing capability of refractive index adjuster (refractometer, aqueous solutions); type: physicochemical; details: increase amount of the refractive index per 1 [mg/ml]; inclination of approximate straight line, aqueous solutions 0 to 350 mg/ml
Experimental: Aqueous solutions prepared to have a plurality of concentrations within a range of 0 to 350 mg/ml were prepared for the respective refractive index adjusters. The refractive index of each aqueous solution was obtained with a refractometer PAL-RI (ATAGO CO., LTD.). A graph was created in which the concentration of each aqueous solution is plotted on the horizontal axis and the refractive index is plotted for each refractive index adjuster on the vertical axis, and the inclination of the approximate straight line was obtained (a value of “Refractive index increasing capability” in Table 1 indicates an increase amount of the refractive index per 1 [mg/ml], and a larger inclination indicates higher refractive index increasing capability of the refractive index adjuster). Incidentally, “unmeasurable” in Table 1 means that an aqueous solution could not be prepared due to generation of precipitates.

[5] = Solubility observed in preparation of coating liquid and chip (Comparative Embodiments)
Text: Further, the solubility with respect to the blood sample was low, so that the spectrum analysis was not able to be performed.

[6] = chip with coating liquid, blood sample

Degree of solubility [1] [mM]	Precipitates [3]	Refractive index increasing capability [4]	Degree of solubility (class) [1]	solubility with respect to the blood sample [5]	solubility with respect to water [5]	solubility [1] [mM]	Compound	Transmittance 650 nm (Coloring reagent absorption peak wavelength) [2]	Red blood cell reducing capability (ΔHt) (red blood cell)	solubility with respect to the blood sample [5, 6]
220	Absent	0.000296	–	–	–	–	O=S(=O)(O)c1cc(S(=O)(=O)O)c2c(/N=N/c3ccccc3)c(O)ccc2c1 [Orange G]	⊙ (the transmittance at 650 nm is 60% or more and 100% or less)	1.9	–
340	Absent	0.000259	–	–	–	–	Acid Fuchsin [reference compound]	×	14.3	–
487	Absent	0.000277	–	–	–	–	O=C([O-])C1=NN(c2ccc(S(=O)(=O)[O-])cc2)C(=O)C1N=Nc1ccc(S(=O)(=O)[O-])cc1.[Na+].[Na+].[Na+] (centres unmarked) [Acid Yellow 23]	⊙ (the transmittance at 650 nm is 60% or more and 100% or less)	8.2	–
–	Absent	0.000129	–	–	–	820 (≈ 326 mg/mL)	OC[C@H]1O[C@H](O[C@]2(CCl)O[C@H](CCl)[C@@H](O)[C@@H]2O)[C@H](O)[C@@H](O)[C@H]1Cl [Sucralose, sucralose]	⊙ (the transmittance at 650 nm is 60% or more and 100% or less)	0.5	–
–	Absent	0.000109	–	–	–	200 (≈ 68.5 mg/mL)	OC[C@H]1O[C@H](O[C@H]2O[C@H](CO)[C@@H](O)[C@H](O)[C@H]2O)[C@H](O)[C@@H](O)[C@@H]1O [Trehalose, trehalose]	⊙ (the transmittance at 650 nm is 60% or more and 100% or less)	3.5	–

Second part, the compound before the results:

Compound	Degree of solubility [1] [mM]	Precipitates [3]	Refractive index increasing capability [4]	Degree of solubility (class) [1]	solubility with respect to the blood sample [5]	solubility with respect to water [5]	solubility [1] [mM]	Transmittance 650 nm (Coloring reagent absorption peak wavelength) [2]	Red blood cell reducing capability (ΔHt) (red blood cell)	solubility with respect to the blood sample [5, 6]
O=S(=O)([O-])c1ccc2c(N=Nc3ccc(S(=O)(=O)[O-])c4ccccc34)c(O)c(S(=O)(=O)[O-])cc2c1.[Na+].[Na+].[Na+] [Acid Red 27]	83	Absent	0.000381	–	–	–	–	◯ (the transmittance at 650 nm is 40% or more and less than 60%)	6.7	–
COc1cc([N+](=O)[O-])ccc1-n1nc(-c2ccc(S(=O)(=O)[O-])cc2S(=O)(=O)[O-])n[n+]1-c1ccc([N+](=O)[O-])cc1.[Na+] [Wst-8, 2-(2-methoxy-4-nitrophenyl)-3-(4-nitrophenyl)-5-(2,4-disulfophenyl)-2H-tetrazolium sodium salt, reference compound]	–	Absent	0.000189	–	–	–	–	×	–	low
CCN(CC)c1ccc(C(=C2C=CC(=[N+](CC)CC)C=C2)c2ccc(S(=O)(=O)[O-])cc2S(=O)(=O)[O-])cc1.[Na+] [Acid Blue 1, reference compound]	–	precipitates were generated; also recorded: Present	–	×	low	low	–	×	–	–
O=S(=O)(O)c1cccc(S(=O)(=O)O)c1 [DSB, 1,3-benzene disulfonate]	–	Absent	0.000126	–	–	–	–	⊙ (the transmittance at 650 nm is 60% or more and 100% or less)	9.0	–
O=[N+]([O-])c1ccc(-[n+]2nc(-c3ccc(S(=O)(=O)[O-])cc3S(=O)(=O)[O-])nn2-c2ccc(I)cc2)cc1.[Na+] [Wst-1, 2-(4-iodophenyl)-3-(4-nitrophenyl)-5-(2,4-disulfophenyl)-2H-tetrazolium sodium salt, reference compound]	–	Absent	0.000174	–	–	–	–	×	–	low

From patent US11656182B2, “Method, composition, and chip for detecting analyte in blood sample” (TERUMO KABUSHIKI KAISHA, priority 2016, dated 2023)
